Reference: patent publication US20250288704A1, “CXCR4-LIGANDS FOR DIAGNOSTIC AND THERAPEUTIC USE AND PRECURSORS THEREOF” (priority 2021, published 2025)
Starred links: 1 amine or outer side, 2 acyl side, 3 side chain; linkers in the order of their positions; H or OH if unused. Positions of bridges follow the written chain, without caps; N, C: chain ends. Non-standard residues stand in square brackets, D forms with d. Residues, ends and D or L forms follow the SMILES beside them. Groups on a side chain read outwards from the residue. Chains are numbered I, II in the order given. *: point of attachment. X7 = O=C(O)CN1CCN(CC(=O)O)CCN([C@H](CCC(=O)*)C(=O)O)CCN(CC(=O)O)CC1; Benzoyl(4-SiFtBu2) = CC(C)(C)[Si](F)(c1ccc(C(=O)*)cc1)C(C)(C)C; DOTA = O=C(O)CN1CCN(CC(=O)O)CCN(CC(=O)*)CCN(CC(=O)O)CC1; d(γGlu) = O=C(O)[C@@H](CCC(=O)[*:2])N[*:1]; dTyr(3-I) = N[C@H](Cc1ccc(O)c(I)c1)C(=O)O; 2Nal = N[C@@H](Cc1ccc2ccccc2c1)C(=O)O; dNMeOrn = CN[C@H](CCCN)C(=O)O; 4Abz = Nc1ccc(C(=O)O)cc1; dDap = NC[C@@H](N)C(=O)O; CO = O=C([*:1])[*:2]; Ahx = NCCCCCC(=O)O

How the values were obtained:
[1] = tested on: Jurkat tumor-bearing CB-17 SCID mice; experiment: Biodistribution in Jurkat tumor-bearing CB-17 SCID mice; type: in vivo; set-up: tissue to tissue ratio at 1 h / tissue to tissue ratio / tissue to tissue ratio at 48 h: reference not given here; conditions: mouse, in vivo
Outline: (§1)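 Radioligand (125I, 177Lu, 99mTc, 18F or 68Ga label; roughly 0.5-20 MBq, 0.02-0.20 nmol) was injected intravenously via tail vein. Hosts were CB17-SCID mice with subcutaneous Jurkat tumors of 5-8 mm, 4-10 weeks post-inoculation. Dissected organs were weighed and counted in a γ-counter.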

[2] = as above; type: in vivo; set-up: tissue to tissue ratio at 1 h / tissue to tissue ratio / tissue to tissue ratio at 48 h: reference not given here; conditions: CB-17 SCID, mouse, in vivo, iv, total radioactivity
Outline: as §1

CXCR4 = CXCR4 (Homo sapiens, UniProt P61073); experiment: Determination of IC50: competition with 125I-Fc-131 on CXCR4-positive Jurkat cells; type: binding; set-up: CXCR4-positive Jurkat T lymphocyte cells were grown in Gibco's RPMI 1640 GlutaMAX medium; endogenous in cells; host or cells: Jurkat T lymphocyte cells (whole cells in suspension, 400.000 per tube); conditions: unlabeled or cold (natGa/natLu) compound vs 125I-Fc-131, Jurkat cells;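 also: test compound at 10^−5 to 10^−11 M competed for 2 h at 8 °C with the radioligand on 400,000 cells per well, bound versus free activity measured by γ-counting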
Sequence of CXCR4 (P61073 whole entry): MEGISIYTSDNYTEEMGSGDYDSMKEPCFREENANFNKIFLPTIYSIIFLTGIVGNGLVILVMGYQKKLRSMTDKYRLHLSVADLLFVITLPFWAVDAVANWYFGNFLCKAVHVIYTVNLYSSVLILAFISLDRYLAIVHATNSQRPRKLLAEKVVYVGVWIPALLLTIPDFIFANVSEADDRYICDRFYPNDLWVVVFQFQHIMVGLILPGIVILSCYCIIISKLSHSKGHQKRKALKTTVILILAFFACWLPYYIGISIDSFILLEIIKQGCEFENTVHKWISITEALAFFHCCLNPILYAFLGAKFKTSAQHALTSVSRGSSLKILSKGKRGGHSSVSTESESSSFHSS
Method: For in vitro experiments, cells were counted in a hemocytometer using trypan blue as contrast agent. The cell suspension was centrifuged, and the pellet resuspended in HBSS (+1 wt % BSA) to a concentration of 2 mio cells/mL. […] 200 μL of cell suspension (400.000 cells per well) were added to obtain a final peptide concentration range of 10^−5-10^−11 M. The tubes were cooled for 2 h at 8° C. to prevent internalization. The experiment was stopped by removal of the supernatant. 200 μL HBSS were added onto the cells, the suspension centrifuged, and the supernatant pooled with the respective first fractions. This step was repeated once more before the tubes containing the supernatants and the ones containing the cell pellets were subjected to activity measurement in the γ-counter.

[3] = Octanol/PBS partition coefficient (logD7.4); type: physicochemical; conditions: n-octanol/PBS pH 7.4, radiolabeled compound
Method: The tubes were vortexed at maximum speed for 3 min to ensure equilibrium before centrifugation at 15.000×g for 5 min on a Biofuge 15 from Heraeus Holding GmbH (Osterode, Germany). An aliquot of 100 μL of each fraction was measured in the γ-counter and the log D7.4 calculated as follows: […]

[4] = tested on: CXCR4-expressing Chem_1 cells; experiment: Determination of internalization, dual tracer with 125I-Fc-131; type: cell-based; conditions: for Cell-bound [%] / Internalized [%]: of total cellular activity
Outline: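 Receptor blockade used AMD3100 (1 mM stock) versus medium-treated wells, triplicate per time point, in Chem_1 cells cultured at 37 °C in DMEM-F12/10% FBS. Activity of supernatant, surface-bound and internalized (1 M NaOH) fractions measured by γ-counter, corrected for non-specific uptake and normalised to standard ligand.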

## C[C@@H](NC(=O)[C@@H](CCCNC(=N)N)NC(=O)[C@@H](CN)NC(=O)CN1CCN(CC(=O)O)CCN(CC(=O)O)CCN(CC(=O)O)CC1)C(=O)Nc1ccc(C(=O)NCCC[C@@H]2C(=O)N[C@@H](CCCNC(=N)N)C(=O)N[C@@H](Cc3ccc4ccccc4c3)C(=O)NCC(=O)N[C@H](Cc3ccc(O)c(I)c3)C(=O)N2C)cc1 [CXCR4-DOTA-4 [Lu]] (cyclo([dTyr(3-I)][dNMeOrn]([4Abz-dA-dR-dDap-DOTA])R[2Nal]G))
[1]
  Calculated tumor retention 6 h compared to the 1 h-value: 126%
  Calculated tumor retention 48 h compared to the 1 h-value: 117%
[2]
  tissue to tissue ratio: 156
  tissue to tissue ratio at 1 h: 3.6
  tissue to tissue ratio at 48 h: 362
[2]; Tumor activity 1 h p.i.
  tissue uptake at 1 h: 6.19 %ID/g
[2]; Tumor activity 6 h p.i.
  tissue uptake at 6 h: 7.78 %ID/g
[2]; Tumor activity 48 h p.i.
  tissue uptake at 48 h: 7.23 %ID/g
[2]; female, % iD/g Blood
  tissue uptake at 1 h: 1.72 %ID/g
  tissue uptake at 6 h: 0.05 %ID/g
  tissue uptake at 48 h: 0.02 %ID/g
[2]; female, % iD/g Bone
  tissue uptake at 1 h: 1.07 %ID/g
  tissue uptake at 6 h: 0.57 %ID/g
  tissue uptake at 48 h: 1.47 %ID/g
[2]; female, % iD/g Heart
  tissue uptake at 1 h: 1.13 %ID/g
  tissue uptake at 6 h: 0.22 %ID/g
  tissue uptake at 48 h: 0.21 %ID/g
[2]; female, % iD/g Intestine
  tissue uptake at 1 h: 0.87 %ID/g
  tissue uptake at 6 h: 0.82 %ID/g
  tissue uptake at 48 h: 0.28 %ID/g
[2]; female, % iD/g Kidney
  tissue uptake at 1 h: 14.4 %ID/g
  tissue uptake at 6 h: 11.3 %ID/g
  tissue uptake at 48 h: 5.31 %ID/g
[2]; female, % iD/g Liver
  tissue uptake at 1 h: 19.2 %ID/g
  tissue uptake at 6 h: 20.5 %ID/g
  tissue uptake at 48 h: 21.7 %ID/g
[2]; female, % iD/g Lung
  tissue uptake at 1 h: 3.69 %ID/g
  tissue uptake at 6 h: 0.6 %ID/g
  tissue uptake at 48 h: 0.47 %ID/g
[2]; female, % iD/g Muscle
  tissue uptake at 1 h: 0.3 %ID/g
  tissue uptake at 6 h: 0.07 %ID/g
  tissue uptake at 48 h: 0.05 %ID/g
[2]; female, % iD/g Pancreas
  tissue uptake at 1 h: 0.52 %ID/g
  tissue uptake at 6 h: 0.16 %ID/g
  tissue uptake at 48 h: 0.24 %ID/g
[2]; female, % iD/g Spleen
  tissue uptake at 1 h: 4.57 %ID/g
  tissue uptake at 6 h: 2.68 %ID/g
  tissue uptake at 48 h: 3.63 %ID/g
[2]; female, % iD/g Stomach
  tissue uptake at 1 h: 1.35 %ID/g
  tissue uptake at 6 h: 0.41 %ID/g
  tissue uptake at 48 h: 0.23 %ID/g
[2]; female, % iD/g Tumor
  tissue uptake at 1 h: 6.19 %ID/g
  tissue uptake at 6 h: 7.78 %ID/g
  tissue uptake at 48 h: 7.23 %ID/g

## C[C@@H](NC(=O)[C@@H](CCCNC(=N)N)NC(=O)[C@@H](CN)NC(=O)CCCCCNC(=O)[C@@H](CNC(=O)CC[C@H](C(=O)O)N1CCN(CC(=O)O)CCN(CC(=O)O)CCN(CC(=O)O)CC1)NC(=O)[C@@H](CNC(=O)c1ccc([Si](F)(C(C)(C)C)C(C)(C)C)cc1)NC(=O)CC[C@@H](NC(=O)N[C@H](CCC(=O)O)C(=O)O)C(=O)O)C(=O)Nc1ccc(C(=O)NCCC[C@@H]2C(=O)N[C@@H](CCCNC(=N)N)C(=O)N[C@@H](Cc3ccc4ccccc4c3)C(=O)NCC(=O)N[C@H](Cc3ccc(O)cc3)C(=O)N2C)cc1 [CXCR4-SiFA-5 [Ga]] (I: {dE-CO-d(γGlu)}-[dDap](Benzoyl(4-SiFtBu2))[dDap](X7)[Ahx][dDap][dR][dA][4Abz] / II: cyclo([dY][dNMeOrn]R[2Nal]G); amide I:C-II:2)
CXCR4
  IC50: 36.5 ± 4.51 nM
[3]
  logD7.4: −1.85 ± 0.07 (7)
[4]; 30 min
  Internalized in relation to 125I-Fc-131 [%]: 233 ± 44.1%
  Cell-bound [%]: 0.66 ± 0.22%
  Internalized [%]: 3.46 ± 0.57%
[4]; 90 min
  Internalization [% Fc-131]: 209 % Fc-131
  Internalized in relation to 125I-Fc-131 [%]: 209 ± 27.2%
  Cell-bound [%]: 0.72 ± 0.34%
  Internalized [%]: 3.70 ± 0.41%

## C[C@@H](NC(=O)[C@@H](CCCNC(=N)N)NC(=O)[C@@H](CN)NC(=O)CCCCCNC(=O)[C@@H](CNC(=O)CC[C@H](C(=O)O)N1CCN(CC(=O)O)CCN(CC(=O)O)CCN(CC(=O)O)CC1)NC(=O)C[N+](C)(C)Cc1ccc([Si](F)(C(C)(C)C)C(C)(C)C)cc1)C(=O)Nc1ccc(C(=O)NCCC[C@@H]2C(=O)N[C@@H](CCCNC(=N)N)C(=O)N[C@@H](Cc3ccc4ccccc4c3)C(=O)NCC(=O)N[C@H](Cc3ccc(O)cc3)C(=O)N2C)cc1 [CXCR4-SiFA-6 [Ga]]
CXCR4
  IC50: 5.52 ± 0.71 nM
[3]
  logD7.4: −1.05 ± 0.06 (8)
[4]; 30 min
  Internalized in relation to 125I-Fc-131 [%]: 829 ± 48.1%
  Cell-bound [%]: 0 ± 0.29%
  Internalized [%]: 37.0 ± 1.06%
[4]; 90 min
  Internalization [% Fc-131]: 980 % Fc-131
  Internalized in relation to 125I-Fc-131 [%]: 980 ± 85.6%
  Cell-bound [%]: 0.81 ± 0.14%
  Internalized [%]: 48.1 ± 1.26%
